Laboratory results taken from ChEMBL document CHEMBL6134844, “Development of Next-Generation Antimalarial Acridones with Radical Cure Potential” (J Med Chem, 2025).

Experiments:
[1] = test system: Plasmodium falciparum; assay: Antiplasmodial activity against asexual blood-stage (ABS) MDR Plasmodium falciparum Dd2 infected in human erythrocytes assessed as reduction in fluorescence measured after 72 hrs by Malaria SYBR Green I-based Fluorescence (MSF) assay; format: functional, organism-based; details: Dd2, Erythrocyte
[2] = test system: Plasmodium falciparum; assay: Antiplasmodial activity against asexual blood-stage (ABS) ATV-resistant clinical isolate Plasmodium falciparum Tm90-C2B infected in human erythrocytes assessed as reduction in fluorescence measured after 72 hrs by Malaria SYBR Green I-based Fluorescence (MSF) assay; format: functional, organism-based; details: Erythrocyte
[3] = test system: Plasmodium falciparum; assay: Antiplasmodial activity against asexual blood-stage (ABS) CQ-sensitive Plasmodium falciparum D6 infected in human erythrocytes assessed as reduction in fluorescence measured after 72 hrs by Malaria SYBR Green I-based Fluorescence (MSF) assay; format: functional, organism-based; details: D6, Erythrocyte
[4] = test system: Plasmodium cynomolgi; assay: (§1) Antiplasmodial activity against schizont Plasmodium cynomolgi B strain infected in Macaca mulatta hepatocytes incubated with sporozoite containing salivary gland homogenate obtained from dissected Anopheles dirus mosquitoes (infected with Plasmodium cynomolgi B strain) treatment started on day 4 post infection and continued daily for 4 days into fresh changed media until day 8 assessed as Liver stage (LS) activity by measuring prophylactic mode by immunofluorescent staining analysis; format: functional, organism-based; details: Hepatocyte
[5] = test system: Hepatocyte; assay: Cytotoxicity against Macaca mulatta hepatocytes assessed as cell viability measured after 48 hrs by MTT assay; format: toxicity, cell-based; details: rhesus monkey, 48 h
[6] = test system: Plasmodium cynomolgi; assay: as §1, with “hypnozoite” for “schizont”, “radical cure” for “prophylactic”; format: functional, organism-based; details: Hepatocyte
[7] = test system: Plasmodium cynomolgi; assay: as §1, with “radical cure” for “prophylactic”; format: functional, organism-based; details: Hepatocyte
[8] = mouse, microsomes, 1 h
[9] = as §1, with “Selectivity index, ratio of CC50 for Macaca mulatta hepatocytes to IC50 for antiplasmodial” for “Antiplasmodial”, “hypnozoite” for “schizont”; format: toxicity, cell-based; details: rhesus monkey, read-out: Selectivity Index
[10] = test system: HepG2; assay: Cytotoxicity against human HepG2 cells assessed as cell viability measured after 48 hrs by MTT assay; format: functional, cell-based; details: HepG2, 48 h
[11] = as §1, with “Selectivity index, ratio of CC50 for Macaca mulatta hepatocytes to IC50 for antiplasmodial” for “Antiplasmodial”; format: toxicity, cell-based; details: rhesus monkey, read-out: Selectivity Index
[12] = as §1, with “Selectivity index, ratio of CC50 for Macaca mulatta hepatocytes to IC50 for antiplasmodial” for “Antiplasmodial”, “radical cure” for “prophylactic”; format: toxicity, cell-based; details: rhesus monkey, read-out: Selectivity Index
[13] = test system: Plasmodium cynomolgi; assay: as §1, with “hypnozoite” for “schizont”; format: functional, organism-based; details: Hepatocyte
[14] = human, microsomes, 1 h
[15] = Toxicity in CF1 mouse infected with asexual blood-stage (ABS) Plasmodium yoelii MRA-428 assessed as hyperactivity at 0.3 to 30 mg/kg, po treated 24 hrs post infection measured after 4 days; format: organism-based; details: in vivo, 96 h, dose 0.3-30 mg/kg, time 4 day
[16] = Toxicity in CF1 mouse infected with asexual blood-stage (ABS) Plasmodium yoelii MRA-428 assessed as lethargy at 0.3 to 30 mg/kg, po treated 24 hrs post infection measured after 4 days; format: organism-based; details: in vivo, 96 h, dose 0.3-30 mg/kg, time 4 day
[17] = Toxicity in CF1 mouse infected with asexual blood-stage (ABS) Plasmodium yoelii MRA-428 assessed as weight loss at 0.3 to 30 mg/kg, po treated 24 hrs post infection measured after 4 days; format: organism-based; details: in vivo, 96 h, dose 0.3-30 mg/kg, time 4 day
[18] = Toxicity in CF1 mouse infected with asexual blood-stage (ABS) Plasmodium yoelii MRA-428 assessed as ruffled hair at 0.3 to 30 mg/kg, po treated 24 hrs post infection measured after 4 days; format: organism-based; details: in vivo, 96 h, dose 0.3-30 mg/kg, time 4 day
[19] = Toxicity in CF1 mouse infected with asexual blood-stage (ABS) Plasmodium yoelii MRA-428 assessed as hunching at 0.3 to 30 mg/kg, po treated 24 hrs post infection measured after 4 days; format: organism-based; details: in vivo, 96 h, dose 0.3-30 mg/kg, time 4 day
[20] = as §1, with “Selectivity index, ratio of CC50 for Macaca mulatta hepatocytes to IC50 for antiplasmodial” for “Antiplasmodial”, “hypnozoite” for “schizont”, “radical cure” for “prophylactic”; format: toxicity, cell-based; details: rhesus monkey, read-out: Selectivity Index

Structure (SMILES) | IC50 [1] [nM] | IC50 [2] [µM] | IC50 [3] [nM] | IC50 [4] [µM] | CC50 [5] [µM] | IC50 [6] [µM] | IC50 [7] [µM] | CLH [8] [µL/min/mg] | selectivity ratio at 96 h [9] | IC50 [10] [µM] | selectivity ratio at 96 h [11] | selectivity ratio at 96 h [12] | IC50 [13] [µM] | t1/2 [14] [h] | Activity [15] | Activity [16] | Activity [17] | Activity [18] | Activity [19] | selectivity ratio at 96 h [20]
O=c1c2ccc(OC3CCNCC3)cc2[nH]c2cc(F)cc(Cl)c12 | 31.4 | > 2.5 | 27.2 | 4.06 | > 20 | > 20 | 13.8 | 72.1 | > 3.36 | 48.9 | > 4.92 | > 1.45 | 5.95 | > 1 | – | – | – | – | – | –
CCCN(CCC)CCNc1ccc2c(=O)c3c([nH]c2c1)CCCC3 | > 2500 | > 2.5 | > 2500 | > 20 | > 20 | > 20 | > 20 | > 500 | – | – | – | – | > 20 | – | Non-toxic | Non-toxic | Non-toxic | Non-toxic | Non-toxic | –
COc1ccc(Oc2ccc3c(=O)c4c(F)cc(Cl)cc4[nH]c3c2)cc1 | 2.9e-05 | 0.0182 | 5.9e-05 | 0.49 | 10.8 | 6.02 | 0.94 | < 3.125 | 2.4 | > 200 | 22 | 11.5 | 4.49 | > 1 | – | – | – | – | – | 1.79
O=c1c2ccc(OC3CCNCC3)cc2[nH]c2cc(Cl)cc(F)c12 | 121 | > 2.5 | 662 | – | – | – | – | – | – | 38.2 | – | – | – | – | – | – | – | – | – | –
O=c1c2ccc(OCc3cccc(OC(F)(F)F)c3)cc2[nH]c2ccc(Cl)c(F)c12 | 0.0004 | 0.181 | 0.00029 | 0.06 | > 20 | 1.94 | 3.26 | 21.8 | > 83.3 | > 200 | > 333 | > 6.13 | 0.24 | > 1 | – | – | – | – | – | > 10.3
CN1CCC(Oc2ccc3c(=O)c4c(F)cc(Cl)cc4[nH]c3c2)CC1 | 23.1 | > 2.5 | 11.2 | 0.54 | > 20 | 18.2 | 9.88 | 209.5 | > 3.51 | 55.6 | > 37 | > 2.02 | 5.7 | – | – | – | – | – | – | > 1.1
CC(C)(C)OC(=O)N1CCC(Oc2ccc3c(=O)c4c(Cl)cc(F)cc4[nH]c3c2)CC1 | 45.7 | > 2.5 | 36.7 | 0.15 | 4.73 | 4.44 | 3.94 | < 3.125 | 3.45 | 90.2 | 31.5 | 1.2 | 1.37 | > 1 | – | – | – | – | – | 1.06
O=c1c2ccccc2[nH]c2cc(Oc3ccc(OC(F)(F)F)cc3)ccc12 | 0.03 | 0.0033 | 0.019 | 0.54 | 3.16 | 3.02 | 1.84 | 11.5 | 2.01 | > 200 | 5.85 | 1.72 | 1.57 | – | – | – | – | – | – | 1.05
